Values belong to the compound of their own block, whether it stands above or below them. Calls of active or inactive are those of the source. The rule behind the calls is not given here.
Legend:
Cricetinae gen. sp. [1] = assay: Inhibition of Human Leukocyte Elastase (HLE) induced lung hemorrhage in hamster at an oral dose of 20 mg/kg; format: functional, Cricetulus griseus
[2] = Partition coefficient (logP); format: physicochemical; details: octanol/water
Cricetinae gen. sp. [3] = assay: Inhibition of Human Leukocyte Elastase (HLE) induced lung hemorrhage in hamster at an oral dose of 20 mg/kg; […]; format: functional, organism-based; set-up: dose 20 mg/kg; details: Cricetulus griseus
[4] = Bioavailability was evaluated in hamster; format: ADME, organism-based; details: cricetinae, in vivo; read-out: Bioavailabiility
[5] = Bioavailability in rat; format: ADME, organism-based; details: in vivo, read-out: Bioavailabiility
[6] = Bioavailability was evaluated in dog; format: ADME, organism-based, Canis lupus familiaris; details: in vivo, read-out: Bioavailabiility
Cricetinae gen. sp. [7] = assay: Inhibition of Human Leukocyte Elastase (HLE) induced lung hemorrhage in hamster at an oral dose of 2.5 mg/kg; format: functional, Cricetulus griseus
Cricetinae gen. sp. [8] = assay: The compound was evaluated for effective dose after oral dosing; format: functional, Cricetulus griseus

SMILES: CC(C)C(NC(=O)Cn1c(-c2ccc(F)cc2)ncc(NC(=O)OCc2ccccc2)c1=O)C(=O)C(F)(F)F (stereo not given)
inhibition in vivo at 20 mg/kg (Cricetinae gen. sp. [1]): 63%

logP [2]: > 4
SMILES: CC(C)C(NC(=O)Cn1c(-c2ccccc2)ccc(NC(=O)OCc2ccccc2)c1=O)C(=O)C(F)(F)F (stereo not given)
inhibition (Cricetinae gen. sp. [3]): inactive

bioavailability [4]: 77%
bioavailability [5]: 62%
bioavailability [6]: 88%
SMILES: CC(C)C(NC(=O)Cn1c(-c2ccc(F)cc2)ncc(N)c1=O)C(=O)C(F)(F)F (stereo not given)
inhibition in vivo at 2.5 mg/kg (Cricetinae gen. sp. [7]): 43%
ED50 (Cricetinae gen. sp. [8]): 7.5 mg/kg

SMILES: COC(=O)Nc1cnc(-c2ccc(F)cc2)n(CC(=O)NC(C(=O)C(F)(F)F)C(C)C)c1=O (stereo not given)
inhibition in vivo at 2.5 mg/kg (Cricetinae gen. sp. [7]): 39%

SMILES: CC(C)C(NC(=O)Cn1c(-c2ccccc2)ccc(NC(=O)OCc2ccc(C(=O)O)cc2)c1=O)C(=O)C(F)(F)F (stereo not given)
inhibition (Cricetinae gen. sp. [3]): inactive

Source: ChEMBL document CHEMBL1127644, “Design of orally active, non-peptidic inhibitors of human leukocyte elastase” (J Med Chem, 1994)
